Laboratory results: ChEMBL document CHEMBL1629583, “Establishment of in vitro susceptibility testing methodologies and comparative activities of piperacillin in combination with the penem {beta}-lactamase inhibitor BLI-489” (2009)
Converted amounts (≈) assume the structure as drawn.

Assays:
Type in all cases: functional
[1] = test system: Bacteroides thetaiotaomicron; assay: Antimicrobial activity against Bacteroides thetaiotaomicron clinical isolate after 18 to 22 hrs by broth microdilution method
Clostridium perfringens = assay: Antimicrobial activity against Clostridium perfringens clinical isolate after 18 to 22 hrs by broth microdilution method
Bacteroides uniformis = assay: Antimicrobial activity against Bacteroides uniformis clinical isolate after 18 to 22 hrs by broth microdilution method
Parvimonas micra = assay: Antimicrobial activity against Peptostreptococcus micros clinical isolate after 18 to 22 hrs by broth microdilution method
[2] = test system: Peptostreptococcus anaerobius; assay: Antimicrobial activity against Peptostreptococcus anaerobius clinical isolate after 18 to 22 hrs by broth microdilution method
Bacteroides fragilis = assay: Antimicrobial activity against Bacteroides fragilis clinical isolate after 18 to 22 hrs by broth microdilution method
Klebsiella pneumoniae [3] = assay: Antimicrobial activity against class A extended spectrum beta-lactamase- producing Klebsiella pneumoniae clinical isolate after 18 to 22 hrs by broth microdilution method
Acinetobacter johnsonii = assay: Antimicrobial activity against Acinetobacter johnsonii clinical isolate after 18 to 22 hrs by broth microdilution method
Proteus mirabilis = assay: Antimicrobial activity against Proteus mirabilis clinical isolate after 18 to 22 hrs by broth microdilution method
Klebsiella aerogenes [4] = assay: Antimicrobial activity against Enterobacter aerogenes clinical isolate after 18 to 22 hrs by broth microdilution method
Serratia marcescens [5] = assay: Antimicrobial activity against Serratia marcescens clinical isolate after 18 to 22 hrs by broth microdilution method
[6] = test system: Acinetobacter haemolyticus; assay: Antimicrobial activity against Acinetobacter haemolyticus clinical isolate after 18 to 22 hrs by broth microdilution method
Citrobacter koseri = assay: Antimicrobial activity against Citrobacter koseri clinical isolate after 18 to 22 hrs by broth microdilution method
[7] = test system: Acinetobacter calcoaceticus; assay: Antimicrobial activity against Acinetobacter calcoaceticus clinical isolate after 18 to 22 hrs by broth microdilution method
Pseudomonas aeruginosa = assay: Antimicrobial activity against Pseudomonas aeruginosa clinical isolate after 18 to 22 hrs by broth microdilution method
Escherichia coli [8] = assay: Antimicrobial activity against class A extended spectrum beta-lactamase- producing Escherichia coli clinical isolate after 18 to 22 hrs by broth microdilution method
Moraxella catarrhalis = assay: Antimicrobial activity against Moraxella catarrhalis clinical isolate after 18 to 22 hrs by broth microdilution method
[9] = test system: Haemophilus parainfluenzae; assay: Antimicrobial activity against Haemophilus parainfluenzae clinical isolate after 18 to 22 hrs by broth microdilution method
Enterobacter cloacae [10] = assay: Antimicrobial activity against Enterobacter cloacae clinical isolate after 18 to 22 hrs by broth microdilution method
Haemophilus influenzae [11] = assay: Antimicrobial activity against beta-lactamase-negative Haemophilus influenzae clinical isolate after 18 to 22 hrs by broth microdilution method
Serratia marcescens [12] = assay: Antimicrobial activity against AmpC beta-lactamase-producing Serratia marcescens clinical isolate after 18 to 22 hrs by broth microdilution method
Citrobacter freundii [13] = assay: Antimicrobial activity against AmpC beta-lactamase-producing Citrobacter freundii clinical isolate after 18 to 22 hrs by broth microdilution method
Providencia rettgeri = assay: Antimicrobial activity against Providencia rettgeri clinical isolate after 18 to 22 hrs by broth microdilution method
Haemophilus influenzae [14] = assay: Antimicrobial activity against beta-lactamase-producing Haemophilus influenzae clinical isolate after 18 to 22 hrs by broth microdilution method
Acinetobacter baumannii = assay: Antimicrobial activity against Acinetobacter baumannii clinical isolate after 18 to 22 hrs by broth microdilution method
Escherichia coli [15] = assay: Antimicrobial activity against AmpC beta-lactamase-producing Escherichia coli clinical isolate after 18 to 22 hrs by broth microdilution method
Acinetobacter junii = assay: Antimicrobial activity against Acinetobacter junii clinical isolate after 18 to 22 hrs by broth microdilution method
Proteus vulgaris = assay: Antimicrobial activity against Proteus vulgaris clinical isolate after 18 to 22 hrs by broth microdilution method
Morganella morganii = assay: Antimicrobial activity against Morganella morganii clinical isolate after 18 to 22 hrs by broth microdilution method
Escherichia coli [16] = assay: Antimicrobial activity against Escherichia coli clinical isolate after 18 to 22 hrs by broth microdilution method
Citrobacter freundii [17] = assay: Antimicrobial activity against Citrobacter freundii clinical isolate after 18 to 22 hrs by broth microdilution method
Klebsiella pneumoniae [18] = assay: Antimicrobial activity against class A extended spectrum beta-lactamase- and class D OXA- producing Klebsiella pneumoniae clinical isolate after 18 to 22 hrs by broth microdilution method
Klebsiella oxytoca = assay: Antimicrobial activity against Klebsiella oxytoca clinical isolate after 18 to 22 hrs by broth microdilution method
Klebsiella pneumoniae [19] = assay: Antimicrobial activity against AmpC- producing Klebsiella pneumoniae clinical isolate after 18 to 22 hrs by broth microdilution method
Acinetobacter lwoffii = assay: Antimicrobial activity against Acinetobacter lwoffii clinical isolate after 18 to 22 hrs by broth microdilution method
Enterobacter cloacae [20] = assay: Antimicrobial activity against AmpC beta-lactamase-producing Enterobacter cloacae clinical isolate after 18 to 22 hrs by broth microdilution method
Klebsiella pneumoniae [21] = assay: Antimicrobial activity against Klebsiella pneumoniae clinical isolate after 18 to 22 hrs by broth microdilution method
Burkholderia cepacia = assay: Antimicrobial activity against Burkholderia cepacia clinical isolate after 18 to 22 hrs by broth microdilution method
Klebsiella aerogenes [22] = assay: Antimicrobial activity against AmpC beta-lactamase-producing Enterobacter aerogenes clinical isolate after 18 to 22 hrs by broth microdilution method
Providencia stuartii = assay: Antimicrobial activity against Providencia stuartii clinical isolate after 18 to 22 hrs by broth microdilution method
Escherichia coli [23] = assay: Antimicrobial activity against class A extended spectrum beta-lactamase- and class D OXA- producing Escherichia coli clinical isolate after 18 to 22 hrs by broth microdilution method
[24] = test system: Stenotrophomonas maltophilia; assay: Antimicrobial activity against Stenotrophomonas maltophilia clinical isolate after 18 to 22 hrs by broth microdilution method

SMILES: CO[C@@]1(NC(=O)Cc2cccs2)C(=O)N2C(C(=O)O)=C(COC(N)=O)CS[C@@H]21 [CEFOXITIN]
- MIC [1]: 16 µg/mL (≈ 37.4 µM)
- MIC50 [1]: 16 µg/mL (≈ 37.4 µM)
- MIC90 [1]: 32 µg/mL (≈ 74.9 µM)
- MIC50 (Clostridium perfringens): 1 µg/mL (≈ 2.34 µM)
- MIC90 (Clostridium perfringens): 2 µg/mL (≈ 4.68 µM)
- MIC50 (Bacteroides uniformis): 16 µg/mL (≈ 37.4 µM)
- MIC90 (Bacteroides uniformis): 16 µg/mL (≈ 37.4 µM)
- MIC50 (Parvimonas micra): 0.5 µg/mL (≈ 1.17 µM)
- MIC90 (Parvimonas micra): 0.5 µg/mL (≈ 1.17 µM)
- MIC50 [2]: 0.25 µg/mL (≈ 0.585 µM)
- MIC90 [2]: 1 µg/mL (≈ 2.34 µM)
- MIC50 (Bacteroides fragilis): 8 µg/mL (≈ 18.7 µM)
- MIC90 (Bacteroides fragilis): 16 µg/mL (≈ 37.4 µM)

SMILES: CO/N=C(\C(=O)N[C@@H]1C(=O)N2C(C(=O)O)=C(CSc3nc(=O)c(O)nn3C)CS[C@H]12)c1csc(N)n1 [CEFTRIAXONE]
- MIC50 (Klebsiella pneumoniae [3]): > 32 µg/mL
- MIC90 (Klebsiella pneumoniae [3]): > 32 µg/mL
- MIC50 (Acinetobacter johnsonii): 2 µg/mL (≈ 3.61 µM)
- MIC90 (Acinetobacter johnsonii): 8 µg/mL (≈ 14.4 µM)
- MIC50 (Proteus mirabilis): ≤ 0.03 µg/mL
- MIC90 (Proteus mirabilis): > 32 µg/mL
- MIC50 (Klebsiella aerogenes [4]): 0.12 µg/mL (≈ 0.216 µM)
- MIC90 (Klebsiella aerogenes [4]): > 32 µg/mL
- MIC50 (Serratia marcescens [5]): 0.5 µg/mL (≈ 0.902 µM)
- MIC90 (Serratia marcescens [5]): > 32 µg/mL
- MIC50 [6]: 2 µg/mL (≈ 3.61 µM)
- MIC90 [6]: 8 µg/mL (≈ 14.4 µM)
- MIC50 (Citrobacter koseri): 0.06 µg/mL (≈ 0.108 µM)
- MIC90 (Citrobacter koseri): 0.25 µg/mL (≈ 0.451 µM)
- MIC50 [7]: > 32 µg/mL
- MIC90 [7]: > 32 µg/mL
- MIC50 (Pseudomonas aeruginosa): > 32 µg/mL
- MIC90 (Pseudomonas aeruginosa): > 32 µg/mL
- MIC50 (Escherichia coli [8]): > 32 µg/mL
- MIC90 (Escherichia coli [8]): > 32 µg/mL
- MIC (Moraxella catarrhalis): ≤ 0.03 µg/mL
- MIC50 (Moraxella catarrhalis): ≤ 0.03 µg/mL
- MIC90 (Moraxella catarrhalis): 0.5 µg/mL (≈ 0.902 µM)
- MIC [9]: ≤ 0.03 µg/mL
- MIC50 [9]: ≤ 0.03 µg/mL
- MIC90 [9]: ≤ 0.03 µg/mL
- MIC50 (Enterobacter cloacae [10]): 0.5 µg/mL (≈ 0.902 µM)
- MIC90 (Enterobacter cloacae [10]): > 32 µg/mL
- MIC (Haemophilus influenzae [11]): ≤ 0.03 µg/mL
- MIC50 (Haemophilus influenzae [11]): ≤ 0.03 µg/mL
- MIC90 (Haemophilus influenzae [11]): ≤ 0.03 µg/mL
- MIC50 (Serratia marcescens [12]): 32 µg/mL (≈ 57.7 µM)
- MIC90 (Serratia marcescens [12]): > 32 µg/mL
- MIC50 (Citrobacter freundii [13]): 32 µg/mL (≈ 57.7 µM)
- MIC90 (Citrobacter freundii [13]): > 32 µg/mL
- MIC50 (Providencia rettgeri): 0.06 µg/mL (≈ 0.108 µM)
- MIC90 (Providencia rettgeri): > 32 µg/mL
- MIC (Haemophilus influenzae [14]): ≤ 0.03 µg/mL
- MIC50 (Haemophilus influenzae [14]): ≤ 0.03 µg/mL
- MIC90 (Haemophilus influenzae [14]): ≤ 0.03 µg/mL
- MIC50 (Acinetobacter baumannii): > 32 µg/mL
- MIC90 (Acinetobacter baumannii): > 32 µg/mL
- MIC50 (Escherichia coli [15]): > 32 µg/mL
- MIC90 (Escherichia coli [15]): > 32 µg/mL
- MIC50 (Acinetobacter junii): 2 µg/mL (≈ 3.61 µM)
- MIC90 (Acinetobacter junii): 8 µg/mL (≈ 14.4 µM)
- MIC50 (Proteus vulgaris): 32 µg/mL (≈ 57.7 µM)
- MIC90 (Proteus vulgaris): > 32 µg/mL
- MIC50 (Morganella morganii): 0.06 µg/mL (≈ 0.108 µM)
- MIC90 (Morganella morganii): 8 µg/mL (≈ 14.4 µM)
- MIC50 (Escherichia coli [16]): 0.06 µg/mL (≈ 0.108 µM)
- MIC90 (Escherichia coli [16]): 0.06 µg/mL (≈ 0.108 µM)
- MIC50 (Citrobacter freundii [17]): 0.5 µg/mL (≈ 0.902 µM)
- MIC90 (Citrobacter freundii [17]): > 32 µg/mL
- MIC50 (Klebsiella pneumoniae [18]): > 32 µg/mL
- MIC90 (Klebsiella pneumoniae [18]): > 32 µg/mL
- MIC50 (Klebsiella oxytoca): 0.06 µg/mL (≈ 0.108 µM)
- MIC90 (Klebsiella oxytoca): 0.12 µg/mL (≈ 0.216 µM)
- MIC50 (Klebsiella pneumoniae [19]): 32 µg/mL (≈ 57.7 µM)
- MIC90 (Klebsiella pneumoniae [19]): > 32 µg/mL
- MIC50 (Acinetobacter lwoffii): 2 µg/mL (≈ 3.61 µM)
- MIC90 (Acinetobacter lwoffii): 8 µg/mL (≈ 14.4 µM)
- MIC50 (Enterobacter cloacae [20]): 32 µg/mL (≈ 57.7 µM)
- MIC90 (Enterobacter cloacae [20]): > 32 µg/mL
- MIC50 (Klebsiella pneumoniae [21]): 0.06 µg/mL (≈ 0.108 µM)
- MIC90 (Klebsiella pneumoniae [21]): 0.12 µg/mL (≈ 0.216 µM)
- MIC50 (Burkholderia cepacia): 32 µg/mL (≈ 57.7 µM)
- MIC90 (Burkholderia cepacia): > 32 µg/mL
- MIC50 (Klebsiella aerogenes [22]): 32 µg/mL (≈ 57.7 µM)
- MIC90 (Klebsiella aerogenes [22]): > 32 µg/mL
- MIC50 (Providencia stuartii): 0.06 µg/mL (≈ 0.108 µM)
- MIC90 (Providencia stuartii): > 32 µg/mL
- MIC (Escherichia coli [23]): > 32 µg/mL
- MIC50 (Escherichia coli [23]): > 32 µg/mL
- MIC90 (Escherichia coli [23]): > 32 µg/mL
- MIC [24]: > 32 µg/mL
- MIC50 [24]: > 32 µg/mL
- MIC90 [24]: > 32 µg/mL
